What was measured:
blood-brain barrier [1] = assay: Claustrophobia test in gas chamber, EBD extravasation; type: in vivo, rats; conditions: breathing 100% O2 vs normal air, P>0.05, FIG. 6A
Description: FIGS. 6A and 6B show the effects of increased pO2 on the blood-brain barrier permeability. FIG. 6A is a quantitative diagram showing the detection amount of EBD in different districts of the brain of the rats in the claustrophobia test. FIG. 6B is a quantitative diagram showing the detection amount of EBD in the blood of the rats in the claustrophobia test. The rats are placed in gas chambers and allowed to breathe either normal air or 100% O2, and then performing the claustrophobia test.

blood-brain barrier [2] = assay: Hypoventilation respiratory treatment, EBD extravasation; type: in vivo, rats; conditions: hypoventilation (50 BPM) with 100% O2; FIGS. 8A, 8B
Method: A regional metabolic acidosis is caused by a local brain activity, but more global […] can also be induced by a hypoventilation. Given that increased blood pO2 substantially potentiates the blood-brain barrier opening by CO2/H^+, we further examine whether increasing pO2 in the rats subjected to the hypoventilation could open the blood-brain barrier in this example. The rats are injected with EBD first, and the rats are grouped and treated with a respiratory treatment by different levels of ventilation. Next, quantifying the EBD extravasation into different districts of the brain of the rats after the respiratory treatment. The respiratory treatment are a physiologically rate, the hypoventilation and a general ventilation, wherein a respiratory rate of the physiologically rate is 90 BPM (breath per minute) by using a tracheotomy, the respiratory rate of the general ventilation is 80 BPM, and the respiratory rate of the hypoventilation is 50 BPM. […]
The data of the respiratory treatment is shown in Table 4 as follows and FIG. 8A-8C. […] FIG. 8B is a quantitative diagram showing the detection amount of EBD in different districts of the brain and the blood of the rats in the hypoventilation. FIG. 8C is a quantitative diagram showing the detection amount of EBD in different districts of the brain and the blood of the rats increased a ventilation rate.

[3] = Inactivity (sedation) of rats during the forced swimming test
Method: Prostaglandin and serotonin are previously implicated in stress-mediated blood-brain barrier disruption. To examine whether prostaglandin and serotonin could contribute to opening of the blood-brain barrier, the rats are treated with indomethacin (10 mg/kg, i.p.) and cyproheptadine (15 mg/kg, i.p.) and then performing the forced swimming test, wherein indomethacincan can reduce the synthesis of prostaglandin and cyproheptadine competes with serotonin in that it acts on a postsynaptic receptor.

blood-brain barrier [4] = assay: Forced swim test, EBD extravasation after drug treatment; type: in vivo, rats; conditions: EIPA 5 mg/kg i.p.; zoniporide 20 mg/kg i.p.; FIG. 4C
Description: In a forced swim test, the rats are forced to swim in an opaque tank with limited spatial information, wherein a diameter, a height and a depth of the opaque tank is 43 cm, 54 cm and 29 cm, respectively.
To examine whether the NHE contributes to metabolic blood-brain barrier disruption during stressful activity, we administer either a vehicle (i.p.) or an NHE inhibitor (i.p.) to EBD-treated rats prior to forced swimming and quantify the EBD extravasation into the brain.

[5] = indomethacin 10 mg/kg i.p., cyproheptadine 15 mg/kg i.p., EIPA 5 mg/kg i.p.

Row | SMILES | EBD extravasation into the motor cortex during the forced swimming test (blood-brain barrier [4]) | sedation at the dose used ([3]; rat, in vivo) | also measured
1 | O=O [100% O2] |  |  | increase in blood-brain barrier permeability (EBD extravasation in motor cortex, caudate/putamen, hippocampus) (blood-brain barrier [1]): not significant; blood-brain barrier opening (blood-brain barrier [2]): opens the blood-brain barrier
2 | CCN(c1nc(N)c(C(=O)NC(=N)N)nc1Cl)C(C)C [EIPA, Ethylisopropyl amiloride] | attenuates |  | number of the rats that remain inactive during the forced swimming test [3, 5]: 0/6; sedation at the dose used [3, 5]: not sedative
3 | COc1ccc2c(c1)c(CC(=O)O)c(C)n2C(=O)c1ccc(Cl)cc1 [indomethacin] |  | marked sedation | 
4 | CN1CCC(=C2c3ccccc3C=Cc3ccccc32)CC1 [cyproheptadine] |  | marked sedation | 
5 | N=C(N)NC(=O)c1cnn(-c2cccc3ncccc23)c1C1CC1 [zoniporide] | attenuates |  | 

From patent US20160310523A1, “USE OF OXYGEN-CONTAINING GAS SOURCE” (China Medical University, priority 2015, published 2016)
